Measured values published in patent US5045302A, “Ligands and cationic complexes thereof with technetium-99m” (priority 1988, dated 1991).

Assay: Rat biodistribution of Tc-99m complexes

| SMILES | Blood (2 min p.i.) [% Injected dose/organ] | Heart (2 min p.i.) [% Injected dose/organ] | Heart/Blood Counts/Gram Ratio (2 min p.i.) | Heart/Liver Counts/Gram Ratio (2 min p.i.) | Liver (2 min p.i.) [% Injected dose/organ] | Blood (60 min p.i.) [% Injected dose/organ] | Heart (60 min p.i.) [% Injected dose/organ] | Heart/Blood Counts/Gram Ratio (60 min p.i.) | Heart/Liver Counts/Gram Ratio (60 min p.i.) | Liver (60 min p.i.) [% Injected dose/organ] |
| --- | --- | --- | --- | --- | --- | --- | --- | --- | --- | --- |
| CCOCCP(CCOC(C)C)CCP(CCOCC)CCOC(C)C (stereo not shown) [Compound 31] | 6.88 | 1.21 | 3.05 | 0.84 | 25.0 | 1.22 | 0.99 | 13.4 | 1.21 | 12.4 |
| CCOCCP(CCOCCF)CCP(CCOCC)CCOCCF (stereo not shown) [Compound 32] | 5.85 | 0.85 | 2.31 | 1.27 | 10.8 | 0.38 | 0.81 | 33.2 | 7.46 | 1.78 |
| CCOCP(CCCP(COCC)COCC)COCC [Compound 33] | 17.9 | 0.50 | 0.43 | 0.16 | 39.4 | 3.20 | 0.29 | 1.3 | 0.29 | 11.4 |
| CCOCCP(CCCP(CCOCC)CCOCC)CCOCC [Compound 34] | 19.5 | 0.41 | 0.34 | 0.22 | 29.7 | 4.56 | 0.16 | 0.52 | 0.21 | 10.9 |
| C1COC(CP(CCCP(CC2CCCO2)CC2CCCO2)CC2CCCO2)C1 (stereo not shown) [Compound 35] | 10.5 | 0.59 | 0.88 | 0.28 | 28.2 | 1.44 | 0.32 | 3.8 | 0.46 | 10.7 |
| CCOCCP(CCOCC)CC(CP(CCOCC)CCOCC)OC [Compound 36] | 10.8 | 1.05 | 1.45 | 0.73 | 18.8 | 2.18 | 0.73 | 5.69 | 1.62 | 6.64 |
| CCOCCP(CCOCC)c1ccccc1P(CCOCC)CCOCC [Compound 37] | 12.4 | 0.82 | 0.99 | 0.35 | 29.7 | 3.25 | 0.54 | 2.62 | 0.63 | 12.0 |
